Reference: patent US20160184230A1, “MELT-PROCESSED POLYMERIC CELLULAR DOSAGE FORM” (priority 2014, published 2016)

Experiment: Compression tests of solid excipient (ASTM D695-10)
Type: physicochemical
Settings: compression-molded sample
Protocol: Compression tests were performed on pure PEG and PEO specimen. The ASTM standard test method for compressive properties of rigid plastics, ASTM D695-10, was used as the protocol to execute compression tests. The testing machine was a Zwick Roell Z2.5 with a 2.5 kN load cell (Zwick GmbH & Co. KG, Ulm, Germany), equipped with compression platens. A speed of 1.3 mm/min was applied for the platens to move relatively towards each other.

OC[C@@H](O)[C@@H](O)[C@H](O)[C@H](O)CO [Mannitol]
Compressive strength: 0.8 MPa | Strain at fracture: <0.02
